Experimental data as given in US9828375B2, “4-position substituted pyrazolopyrimidine derivative, and use thereof in drug preparation” (Guangxi Wuzhou Pharmaceuticals (Group) Co., Ltd., priority 2012, dated 2017).

Target: T1, FLT3 (Homo sapiens, UniProt P36888)
T1 sequence (P36888 27-993): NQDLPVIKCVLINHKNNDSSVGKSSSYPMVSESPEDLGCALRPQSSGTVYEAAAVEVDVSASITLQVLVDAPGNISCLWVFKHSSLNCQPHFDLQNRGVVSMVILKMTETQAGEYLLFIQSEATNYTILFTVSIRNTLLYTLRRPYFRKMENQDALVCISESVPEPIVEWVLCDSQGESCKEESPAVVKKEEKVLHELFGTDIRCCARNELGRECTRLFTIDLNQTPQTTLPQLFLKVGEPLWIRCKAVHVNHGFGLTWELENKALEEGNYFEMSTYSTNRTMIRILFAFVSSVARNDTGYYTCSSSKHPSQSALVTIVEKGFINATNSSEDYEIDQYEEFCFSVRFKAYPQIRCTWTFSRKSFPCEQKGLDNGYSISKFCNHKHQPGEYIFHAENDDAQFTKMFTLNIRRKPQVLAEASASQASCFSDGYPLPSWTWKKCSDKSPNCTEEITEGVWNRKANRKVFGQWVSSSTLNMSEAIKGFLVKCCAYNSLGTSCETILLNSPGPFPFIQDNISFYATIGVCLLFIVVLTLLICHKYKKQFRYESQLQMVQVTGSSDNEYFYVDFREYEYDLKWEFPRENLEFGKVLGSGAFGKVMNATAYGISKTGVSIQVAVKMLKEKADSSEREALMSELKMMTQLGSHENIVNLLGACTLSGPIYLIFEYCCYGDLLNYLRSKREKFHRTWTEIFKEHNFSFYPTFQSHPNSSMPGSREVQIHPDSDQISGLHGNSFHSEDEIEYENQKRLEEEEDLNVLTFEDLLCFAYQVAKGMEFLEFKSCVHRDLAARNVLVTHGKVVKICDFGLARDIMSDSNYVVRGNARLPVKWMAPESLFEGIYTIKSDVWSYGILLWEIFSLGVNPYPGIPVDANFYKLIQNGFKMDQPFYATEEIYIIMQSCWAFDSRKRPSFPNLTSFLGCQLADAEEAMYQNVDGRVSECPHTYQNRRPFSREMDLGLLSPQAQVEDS
Experiment: Kinase inhibition activity test, isotope labeling (γ-33P-ATP): FLT3
Format: biochemical
Details: for inhibition at 10 µM / Activity inhibition rate Flt3 (h): test compound at a concentration of 10 μM; for inhibition at 10 µM: read-out: Activity inhibition rate Flt3 (h); for IC50: ATP 200 μM, read-out: FLT3 IC50 value (inhibitory activity value)
Description: The purpose of this experiment was to test the inhibitory activity of the compound of the invention for in vitro kinase with the isotope labeling method (the γ phosphate group on ATP was labeled). In this experiment, the in vitro activity inhibition of such kinases as FLT3, VEGFR2, FLT1, FLT4, RET, c-RAF, B-RAF, c-KIT, PDGFα, PDGFβ, FGFR2, FGFR1, EphA2, EphB2, SRC, ABL, ALK and Met was tested respectively. Staurosporine was reference molecule (or referred to as positive control). The kinase inhibition activity of the test compound was expressed by half-inhibitory concentration (IC50) or the kinase activity inhibition rate of the test compound at a concentration of 10 μM. The IC50 value could be obtained by calculating the kinase activity inhibition rate of the test compound at different concentrations.
20 mM 3-(N-morpholinyl)propanesulfonic acid (MOPS); 1 mM ethylenediaminetetraacetic acid (EDTA), 0.01% Brij 35 (Brij-35), 5% glycerol, 0.1% mercaptoethanol, 1 mg/mL bovine serum albumin (BSA), 10 mM manganous dichloride solution (MnCl2), 0.1 mg/mL glutamic acid/tyrosine (4:1) polypeptide (poly(Glu, Tyr)4:1), 50 μM EAIYAAPFAKKK (substrate of FLT3), 0.33 mg/mL myelin basic protein (substrate of VEGFR2), 250 μM KKKSPGEYVNIEFG (substrate of FLT1(h)), 500 μM GGEEEEYFELVKKKK (substrate of FLT4(h)), 250 μM KKKSPGEYVNIEFG (substrate of RET), 0.66 mg/mL myelin basic protein (substrate of C-RAF), 250 μM GGMEDIYFEFMGGKKK (substrate of c-Kit), 250 μM GGMEDIYFEFMGGKKK (substrate of PDGFα), 250 μM KKKSPGEYVNIEFG (substrate of FGFR1), […] GGEEEEYFELVKKKK (substrate of SRC), 50 μM EAIYAAPFAKKK (substrate of ABL), 250 μM KKKSPGEYVNIEFG (substrate of ALK), 250 μM KKKSPGEYVNIEFG (substrate of Met(h)), 10 mM magnesium acetate and γ-^33 P-ATP solution, stop buffer (3% phosphate buffer), washing buffer (75 mM phosphate solution), methanol, Filtermat A membrane, FLT3, VEGFR2, FLT3, VEGFR2, FLT1, FLT4, RET, c-RAF, B-RAF, c-KIT, PDGFRα, PDGFRβ, FGFR2, FGFR1, EphA2, EphB2, SRC, ABL, ALK, Met and other kinases, and the test compounds.
Buffers (8 mM MOPS with pH value of 7.0, 0.2 mM EDTA and 10 mM MnCl2), (5-10 mU) kinases to be tested (FLT3, VEGFR2, FLT1, FLT4, RET, c-RAF, B-RAF, c-KIT, PDGFRα, PDGFRβ, FGFR2, FGFR1, EphA2, EphB2, SRC, ABL, ALK and Met), substrates of kinases to be tested (refer to experimental materials), 10 mM magnesium acetate and γ-^33 P-ATP solution, and test compounds at different concentrations were added to a reaction tube orderly. […] Reaction was terminated with 5 μL 3% phosphate buffer finally, and 10 μL reaction solution was titrated to the Filtermat A membrane; solution was washed for 3 times with 75 mM phosphate solution with each time lasting 5 minutes, and then washed once with methanol. Finally, the Filtermat A membrane was dried, and scintillation counting was performed on the membrane, with scintillation count reflecting the phosphorylation degree of the substrates, so that the activity inhibition of kinase could be characterized.

Row | Molecule | inhibition at 10 µM [%] | Activity inhibition rate Flt3 (h) (10 µM) [%] | IC50 [nM] | Activity inhibition rate Flt3 (h) [%]
1 | O=C(Nc1ccc(Oc2ncnc3[nH]ncc23)cc1)Nc1cc(C(F)(F)F)on1 [4a-28] | 100 | – | – | –
2 | C[C@@H](NC(=O)Nc1ccc(Nc2ncnc3[nH]ncc23)cc1)c1ccccc1 [4b-2, (R)-1-(4-(1H-pyrazolopyrimidine-4-amido)phenyl)-3-(1-phenethyl)urea] | – | 0 | – | –
3 | CC(C)(C)c1cc(NC(=O)Nc2ccc(Oc3ncnc4[nH]ncc34)cc2)on1 [4a-25] | – | – | 16 | 100
4 | C[C@H](NC(=O)Nc1ccc(Oc2ncnc3[nH]ncc23)cc1)c1ccccc1 [4a-18, (S)-1-(4-((1H-pyrazolopyrimidine-4-yl)oxy)phenyl)-3-(1-phenethyl)urea] | – | – | – | 81
5 | O=C(Nc1ccc(Oc2ncnc3[nH]ncc23)cc1)Nc1ccc(N2CCOCC2)cc1 [4a-16, 1-(4-((1H-pyrazolopyrimidine-4-yl)oxy)phenyl)-3-(4-morpholinylphenyl)urea] | 76 | – | – | –
6 | CC(C)(C)c1cc(NC(=O)Nc2ccc(Oc3ncnc4[nH]ncc34)cc2)no1 [4a-26] | 100 | – | 8 | –
7 | COc1ccc(NC(=O)Nc2ccc(NC(=O)N3C=NC=C4NNC=C43)cc2)cc1 [4b-6, 1-(4-(1H-pyrazolopyrimidine-4-amido)phenyl)-3-(4-methoxyphenyl)urea] | 81 | – | – | –
8 | CC(C)n1ncc2c(Oc3ccc(NC(=O)Nc4cc(C(C)(C)C)on4)cc3)ncnc21 [5a-4, 1-(5-tert-butylisoxazol-3-yl)-3-(4-(1-isopropyl-(1H-pyrazolopyrimidine-4-yl)oxy)phenyl)urea] | > 90 | – | – | –
9 | C[C@H](NC(=O)Nc1ccc(Nc2ncnc3[nH]ncc23)cc1)c1ccccc1 [4b-4] | – | 59 | – | –
10 | O=C(Nc1ccc(Oc2ncnc3[nH]ncc23)cc1)Nc1ccc(C(F)(F)F)cc1 [4a-1] | 100 | – | 27 | –
11 | O=C(Nc1ccc(Sc2ncnc3[nH]ncc23)cc1)Nc1cccc(C(F)(F)F)c1 [4c-2] | – | – | – | >90
12 | O=C(Nc1ccc(C(F)(F)F)cc1)Nc1ccc(Oc2ncnc3[nH]ncc23)c(F)c1 [4a-9, 1-(4-((1H-pyrazolopyrimidine-4-yl)oxy)-3-fluorophenyl)-3-(4-(trifluoromethyl)phenyl)urea] | – | – | 18 | 100
13 | O=C(Nc1ccccc1)Nc1ccc(Oc2ncnc3[nH]ncc23)cc1 [4a-15, 1-(4-((1H-pyrazolopyrimidine-4-yl)oxy)phenyl)-3-phenylurea] | – | – | 89 | 100
14 | COc1cccc(NC(=O)Nc2ccc(Nc3ncnc4[nH]ncc34)cc2)c1 [4b-3] | 72 | – | – | –
15 | CC(C)(C)c1cc(NC(=O)Nc2ccc(Oc3ncnc4[nH]ncc34)cc2)n(-c2ccccc2)n1 [4a-24] | – | – | 17 | 100
16 | O=C(Nc1ccc(NC(=O)N2C=NC=C3NNC=C32)cc1)Nc1ccc(Cl)c(C(F)(F)F)c1 [4b-5, 1-(4-(1H-pyrazolopyrimidine-4-amido)phenyl)-3-(4-chloro-3-(trifluoromethyl)phenyl)urea] | 95 | – | – | –
17 | 1-(4-((1H-pyrazolopyrimidine-4-yl)oxy)phenyl)-3-(methylcyclohexyl)urea [4a-20] | – | – | – | 66
18 | O=C(Nc1ccc(Sc2ncnc3[nH]ncc23)cc1)Nc1ccc(C(F)(F)F)cc1 [4c-1] | > 90 | – | – | –
19 | O=C(Nc1ccc(Oc2ncnc3[nH]ncc23)cc1)Nc1ccc(C(F)(F)F)cc1Cl [4a-13] | – | – | 24 | 100
20 | O=C(Nc1ccc(Oc2ncnc3[nH]ncc23)cc1)Nc1cccc(C(F)(F)F)c1 [4a-6] | 100 | – | 9 | –
21 | O=C(Nc1ccc(Oc2ncnc3[nH]ncc23)cc1)Nc1cc(C(F)(F)F)cc(C(F)(F)F)c1 [4a-12, 1-(4-((1H-pyrazolopyrimidine-4-yl)oxy)phenyl)-3-(3,5-bis(trifluoromethyl)phenyl)urea] | – | – | 61 | 100
22 | CC(C)(C)c1cc(NC(=O)Nc2ccc(Oc3ncnc4[nH]ncc34)c(F)c2)no1 [4a-31] | – | – | 5 | 100
23 | Cc1cc(C)c(NC(=O)Nc2ccc(NC(=O)N3C=NC=C4NNC=C43)cc2)c(C)c1 [4b-7, 1-(4-(1H-pyrazolopyrimidine-4-amido)phenyl)-3-(2,4,6-trimethylphenyl)urea] | 91 | – | – | –
24 | O=C(Nc1ccc(Oc2ncnc3[nH]ncc23)cc1)Nc1ccc(Cl)c(C(F)(F)F)c1 [4a-2] | – | – | 39 | 100
25 | 1-(4-((1H-pyrazolopyrimidine-4-yl)oxy)-3-fluorophenyl)-3-(3-trifluoromethoxy)phenyl)urea [4a-8] | – | – | 38 | 100
26 | CC(C)c1cccc(NC(=O)Nc2ccc(Oc3ncnc4[nH]ncc34)c(F)c2)c1 [4a-7, 1-(4-((1H-pyrazolopyrimidine-4-yl)oxy)-3-fluorophenyl)-3-(3-isopropylphenyl)urea] | – | – | 36 | 100
27 | O=C(Nc1ccc(Oc2ncnc3[nH]ncc23)c(F)c1)Nc1ccc(Cl)c(C(F)(F)F)c1 [4a-10, 1-(4-((1H-pyrazolopyrimidine-4-yl)oxy)-3-fluorophenyl)-3-(4-chloro-3-(trifluoromethyl)phenyl)urea] | – | – | 25 | 100
28 | O=C(Nc1cccc(Nc2ncnc3[nH]ncc23)c1)Nc1ccc(F)c(Cl)c1 [4b-1] | 30 | – | – | –
29 | CC(C)(C)c1cc(NC(=O)Nc2ccc(Sc3ncnc4[nH]ncc34)cc2)no1 [4c-3, 1-(4-(1H-pyrazolopyrimidine-4-sulfydryl)phenyl)-3-(5-tert-butylisoxazol-3-yl)urea] | – | – | – | >90
30 | C[C@@H](NC(=O)Nc1ccc(Oc2ncnc3[nH]ncc23)cc1)c1ccccc1 [4a-19, (R)-1-(4-((1H-pyrazolopyrimidine-4-yl)oxy)phenyl)-3-(1-phenethyl)urea] | – | – | – | 73
